Laboratory results: patent US8158172B2, “Fermented food products containing probiotics strains, and method for preparing same” (Compagnie Gervais Danone, priority 2006, dated 2012)

Key:
Assay type in all cases: cell-based
bifidobacteria (I-2494) = assay: Development of the population of bifidobacteria in the model preserved at 4° C., filtered or autoclaved stimulant (Example 4); settings: 50 mg/l; for population of bifidobacteria D 10: 10 days after placing in pots; for population of bifidobacteria D 10 / population of bifidobacteria D 24 / population of bifidobacteria D 29 / population of bifidobacteria D 0: preserved at 4° C.; for population of bifidobacteria D 24: 24 days after placing in pots; for population of bifidobacteria D 29: 29 days after placing in pots; for population of bifidobacteria D 0: placing in pots (packaging); for effect of the supply on the population of bifidobacteria: filtered or autoclaved, relative to control
Method: The impact of sterilization by filtration or thermization of the cysteine and methionine is assessed (final concentration used: 50 mg/l). The solutions are either filtered at 0.2 μm or autoclaved for 5 minutes at 121° C. then frozen in the form of beads in liquid nitrogen. Constitution of the model: Milex skimmed milk powder supplied by Arla food: 120 g […] Heat treatment: pasteurization for 30 minutes at 95° C. in a bubbling water bath Cysteine: supplier Sigma. The solution is prepared at 500 g/l, filtered on a 0.2 μm Nalgène filter unit or sterilized at 121° C. for 5 minutes by an autoclave controlled by temperature probe ([…] France S.A., reference KL 60/101). This solution is injected sterilely into the pasteurized model for a final concentration of 50 mg/l. […] The solution is prepared at 300 g/l; the filtration or sterilization treatment is identical to that carried out for the cysteine solution. This solution is injected sterilely into the pasteurized model for a final concentration of 50 mg/l. The seeding doses are referred to in Table 3 below. The seeding is 5.10^6 CFU/ml of Streptococcus thermophilus and 5.10^6 CFU/ml of Lactobacillus bulgaricus. The monitoring of the population of bifidobacteria in the model preserved at 4° C. as a function of the various conditions above is represented in FIG. 3 as well as in Table 4 below: The reference time D0 corresponds to placing in pots (packaging).

[1] = system: Bifidobacterium animalis ssp lactis (CNCM: I-2494); assay: Growth of bifidobacteria in milk, quantity at the end of the fermentation (Example 1); settings: milk model at 37° C.; vitamin C 0.5 g/l, cysteine 50 mg/l
Method: A ferment comprising Streptococcus thermophilus (CNCM: I-1630)+Lactobacillus delbreckii ssp. bulgaricus (CNCM: I-1632)+Lactobacillus delbrueckii ssp. bulgaricus (CNCM: I-1519)+Bifidobacterium animalis ssp lactis (CNCM: I-2494) is used. The growth of bifidobacteria in milk is measured in the presence of a solution of vitamin C (0.5 g/l) completely reducing the oxygen in the medium, and a solution of cysteine (50 mg/l). A heat treatment is carried out involving pasteurization for 30 minutes at 95° C. in a bubbling water bath. The cysteine is supplied by Sigma. The solution is prepared at 500 g/l, filtered on a 0.2 μm Nalgène filter unit. This solution is used injected sterilely into the pasteurized model for a final concentration of 50 mg/l. The vitamin C is supplied by Sigma. The solution is prepared at 100 g/l, filtered on a 0.2 μm Nalgène filter unit (cat. 156-4020, Nalge Europe Ltd, Belgium). This solution is used injected sterilely into the pasteurized model for a final concentration of 0.5 g/l. The seeding is 5.10^6 CFU/ml of Streptococcus thermophilus and 5.10^6 CFU/ml of Lactobacillus bulgaricus.

[2] = system: ferment comprising Streptococcus thermophilus (CNCM: I-1630), Lactobacillus delbrueckii ssp. bulgaricus (CNCM: I-1632, I-1519) and Bifidobacterium animalis ssp …; assay: Monitoring of the acidification of the milk product model by the ferment of Example 1; settings: vitamin C 0.5 g/l, cysteine 50 mg/l; for acidification curve compared with control / vitamin C curve: FIG. 1; for Ta = latency time / Tmax = time at Vmax / TpH 4.8 = time to arrive at pH 4.8 / TpH 5 = time to arrive at pH 5 / TpH 5.5 = time to arrive at pH 5.5 / Vmax = maximum rate / pH 0 = pH at start of fermentation / pHm = pH at the maximum acidification rate: milk model at 37° C.
Method: A ferment comprising Streptococcus thermophilus (CNCM: I-1630)+Lactobacillus delbreckii ssp. bulgaricus (CNCM: I-1632)+Lactobacillus delbrueckii ssp. bulgaricus (CNCM: I-1519)+Bifidobacterium animalis ssp lactis (CNCM: I-2494) is used.
The growth of bifidobacteria in milk is measured in the presence of a solution of vitamin C (0.5 g/l) completely reducing the oxygen in the medium, and a solution of cysteine (50 mg/l).
Constitution of the product model:
Milex skimmed milk powder supplied by Arla food: 120 g
Water: quantity sufficient for 1 kg
A heat treatment is carried out involving pasteurization for 30 minutes at 95° C. in a bubbling water bath.
The cysteine is supplied by Sigma. The solution is prepared at 500 g/l, filtered on a 0.2 μm Nalgène filter unit. This solution is used injected sterilely into the pasteurized model for a final concentration of 50 mg/l.
The vitamin C is supplied by Sigma. The solution is prepared at 100 g/l, filtered on a 0.2 μm Nalgène filter unit (cat. 156-4020, Nalge Europe Ltd, Belgium). This solution is used injected sterilely into the pasteurized model for a final concentration of 0.5 g/l.
The seeding is 5.10^6 CFU/ml of Streptococcus thermophilus and 5.10^6 CFU/ml of Lactobacillus bulgaricus.
The monitoring of the acidification of the model at 37° C. is represented in Table 2 below as well as in FIG. 1.

Bifidobacterium = assay: Population of bifidobacteria during preservation at 10° C., cysteine incorporated before pasteurization (Example 5)
Method: This concentration was assessed on direct incorporation in the model and pasteurized composition (95° C., 30 minutes). The monitoring of the population of bifidobacteria in the product model during preservation at 10° C. is represented in FIG. 4.

[3] = system: ferment comprising Streptococcus thermophilus (CNCM: I-2272, I-2773, I-2130), Lactobacillus delbrueckii ssp. bulgaricus (CNCM: I-1519) and Bifidobacterium …; assay: Acidification kinetics of milk with the ferment of Example 2 (Example 3); settings: 15 mg/L cysteine versus control without cysteine
Description: A ferment comprising Streptococcus thermophilus (CNCM: I-2272)+Streptococcus thermophilus (CNCM: I-2773)+Streptococcus thermophilus (CNCM: I-2130)+Lactobacillus delbrueckii ssp. bulgaricus (CNCM: I-1519)-+Bifidobacterium animalis ssp lactis (CNCM: I-2494) is used. The ferment described in Example 2 is used.

[4] = system: Bifidobacterium animalis ssp lactis (CNCM: I-2494); assay: Population of bifidobacteria in milk models (stirred yogurts) during preservation at 10° C. (Example 2)
Method: A ferment comprising Streptococcus thermophilus (CNCM: I-2272)+Streptococcus thermophilus (CNCM: I-2773)+Streptococcus thermophilus (CNCM: I-2130)+Lactobacillus delbrueckii ssp. bulgaricus (CNCM: I-1519)-+Bifidobacterium animalis ssp lactis (CNCM: I-2494) is used. “Milk models” are constituted by standard stirred yogurts comprising the ferment described above. The use of 0.2 μm-filtered cysteine was assessed in the “milk models” in proportions comprised from 5 mg/l to 50 mg/l (preferably from 5 to 20 mg/l). For the bifidobacteria counting method, reference may be made to M. Grand et al., Quantitative analysis and molecular identification of bifidobacteria strains in probiotic milk products, Eur. Food Res. Technol. 217:90-92 (2003).

bifidobacteria = assay: Populations of bifidobacteria in products with increasing doses of cysteine (Example 7)
Method: Different products were prepared with increasing doses of cysteine (see the table below). The control was the standard dairy product containing the ferment.

N[C@@H](CS)C(=O)O [Autoclaved cysteine, L-cysteine]
population of bifidobacteria D 10 (bifidobacteria (I-2494)): 5.2.10^8 CFU/ml | population of bifidobacteria D 24 (bifidobacteria (I-2494)): 2.8.10^8 CFU/ml | population of bifidobacteria D 29 (bifidobacteria (I-2494)): 1.7.10^8 CFU/ml | population of bifidobacteria D 0 (bifidobacteria (I-2494)): 3.1 · 10^8 CFU/ml

CSCCC(N)C(=O)O [Autoclaved methionine, L-methionine ((S)-2-amino-4-methylthio-butyric acid)]
population of bifidobacteria D 10 (bifidobacteria (I-2494)): 3.5 · 10^8 CFU/ml | population of bifidobacteria D 24 (bifidobacteria (I-2494)): 3.5 · 10^8 CFU/ml | population of bifidobacteria D 29 (bifidobacteria (I-2494)): 2.8 · 10^8 CFU/ml | population of bifidobacteria D 0 (bifidobacteria (I-2494)): 3.4.10^8 CFU/ml

O=C1O[C@H]([C@@H](O)CO)C(O)=C1O [Vitamin C, vitamin C, reference compound]
D 0 CFU/ml = quantity of bifidobacteria obtained at the end of the fermentation [1]: 1.02 · 10^8 CFU/ml | acidification curve compared with control / vitamin C curve [2]: virtually indistinguishable from the control acidification curve | Ta = latency time [2]: 86 min | Tmax = time at Vmax [2]: 3.07 h | TpH 4.8 = time to arrive at pH 4.8 [2]: 479 minutes | TpH 5 = time to arrive at pH 5 [2]: 391 minutes | TpH 5.5 = time to arrive at pH 5.5 [2]: 260 minutes | Vmax = maximum rate [2]: −0.0079 pH units/minute | pH 0 = pH at start of fermentation [2]: 6.5 | pHm = pH at the maximum acidification rate [2]: 5.96

N[C@@H](CS)C(=O)O [cysteine, L-cysteine]
D 0 CFU/ml = quantity of bifidobacteria obtained at the end of the fermentation [1]: 2.79 · 10^8 CFU/ml | population of Bifidobacterium after 44 days of preservation at 10° C. (Bifidobacterium; 12 mg/l cysteine incorporated before pasteurization (95° C., 30 minutes)): above 1.4.10^8 CFU/ml | population of Bifidobacterium at D1 (24 hours of storage) (Bifidobacterium; 12 mg/l cysteine incorporated before pasteurization (95° C., 30 minutes), 10° C.): 2.4.10^8 CFU/ml | population of Bifidobacterium on addition of 0.2 μm filtered cysteine to the model (Bifidobacterium; filtered cysteine, not heat treated (comparison)): 3.10^8 CFU/ml | effect on the overall acidification kinetics of milk [3]: absence of the effect | acidification curve compared with control / vitamin C curve [2]: differs from the acidification curve in the presence of vitamin C | Ta = latency time [2]: 90 min | Tmax = time at Vmax [2]: 3.47 h | TpH 4.8 = time to arrive at pH 4.8 [2]: 417 minutes | TpH 5 = time to arrive at pH 5 [2]: 354 minutes | TpH 5.5 = time to arrive at pH 5.5 [2]: 248 minutes | Vmax = maximum rate [2]: −0.01046 pH units/minute | pH 0 = pH at start of fermentation [2]: 6.6 | pHm = pH at the maximum acidification rate [2]: 5.82 | Bifidobacterium I-2494 population after 28 days of preservation at 10° C. ([4]; 0.0015% i.e. 15 mg/l of filtered cysteine): 2.8.10^8 CFU/ml | Bifidobacterium population ([4]; dose of 0.0015% cysteine): > 2.10^8 CFU/ml | population of bifidobacteria after preservation for up to 28 days at 10° C. ([4]; highest concentration of L cysteine (range 5 mg/l to 50 mg/l)): remains stable | population of bifidobacteria at D+24 h ([4]; highest concentration of L cysteine (range 5 mg/l to 50 mg/l), 0.2 μm-filtered): 3.10^8 CFU/ml | population of bifidobacteria at D+24 h ([4]; lowest concentration of L cysteine (range 5 mg/l to 50 mg/l)): 1.10^8 CFU/ml | Populations (CFU/mL) T0 (bifidobacteria; Test 1, cysteine 0.008%): 4.40E+06 CFU/mL | Populations (CFU/mL) Tf 495 min (bifidobacteria; Test 1, cysteine 0.008%): 1.70E+08 CFU/mL | Populations (CFU/mL) T0 (bifidobacteria; Test 2, cysteine 0.005%): 4.70E+06 CFU/mL | Populations (CFU/mL) T pH 4.8 (bifidobacteria; Test 2, cysteine 0.005%): 1.90E+08 CFU/mL | Populations (CFU/mL) Tf 495 min (bifidobacteria; Test 2, cysteine 0.005%): 2.40E+08 CFU/mL | Populations (CFU/mL) T0 (bifidobacteria; Test 3, cysteine 0.002%): 3.30E+06 CFU/mL | Populations (CFU/mL) T pH 4.8 (bifidobacteria; Test 3, cysteine 0.002%): 2.50E+08 CFU/mL | Populations (CFU/mL) Tf 495 min (bifidobacteria; Test 3, cysteine 0.002%): 3.10E+08 CFU/mL | Populations (CFU/mL) T0 (bifidobacteria; Test 5, cysteine 0.001%): 3.10E+06 CFU/mL | Populations (CFU/mL) T pH 4.8 (bifidobacteria; Test 5, cysteine 0.001%): 1.50E+08 CFU/mL | Populations (CFU/mL) Tf 495 min (bifidobacteria; Test 5, cysteine 0.001%): 2.40E+08 CFU/mL | Populations (CFU/mL) T0 (bifidobacteria; Test 6, cysteine 0.0005%): 3.90E+06 CFU/mL | Populations (CFU/mL) T pH 4.8 (bifidobacteria; Test 6, cysteine 0.0005%): 1.10E+08 CFU/mL | Populations (CFU/mL) Tf 495 min (bifidobacteria; Test 6, cysteine 0.0005%): 1.20E+08 CFU/mL | effect of the supply on the population of bifidobacteria (bifidobacteria (I-2494)): increased | population of bifidobacteria D 10 (bifidobacteria (I-2494); listed as Filtered cysteine): 4.3 · 10^8 CFU/ml | population of bifidobacteria D 24 (bifidobacteria (I-2494); listed as Filtered cysteine): 4.0 · 10^8 CFU/ml | population of bifidobacteria D 0 (bifidobacteria (I-2494); listed as Filtered cysteine): 5.1.10^8 CFU/ml

CSCCC(N)C(=O)O [methionine, L-methionine ((S)-2-amino-4-methylthio-butyric acid)]
effect of the supply on the population of bifidobacteria (bifidobacteria (I-2494)): increased | population of bifidobacteria D 10 (bifidobacteria (I-2494); listed as Filtered methionine): 6.2 · 10^8 CFU/ml | population of bifidobacteria D 24 (bifidobacteria (I-2494); listed as Filtered methionine): 3.4 · 10^8 CFU/ml | population of bifidobacteria D 29 (bifidobacteria (I-2494); listed as Filtered methionine): 2.3 · 10^8 CFU/ml | population of bifidobacteria D 0 (bifidobacteria (I-2494); listed as Filtered methionine): 4.0.10^8 CFU/ml
